Experimental findings from US8637484B2, “Modulation of growth hormone receptor expression and insulin-like growth factor expression” (Antisense Therapeutic Limited, priority 2003, dated 2014) are described below.

In the oligonucleotide strings, read from the 5' end, every base follows the letter of its sugar. An asterisk marks phosphorothioate; unmarked linkages are phosphodiester. Other units and linkages are bracketed, terminal groups are in braces. A string of capitals states the bases alone. e = 2'-O-(2-methoxyethyl) (MOE); [5mC] = 5-methylcytosine; d = 2'-deoxy (DNA)

The data set deals with human growth hormone receptor mRNA. The data set is described as follows: Inhibition of human growth hormone receptor mRNA levels in MCF7 cells, quantitative real-time PCR. It counts as cell-based. The arrangement: concentration or dose not given beside the values. Conditions: averages from three experiments. The protocol:
The human breast carcinoma cell line MCF-7 was obtained from the American Type Culture Collection (Manassas, Va.). MCF-7 cells were routinely cultured in DMEM low glucose (Gibco/Life Technologies, Gaithersburg, Md.) supplemented with 10% fetal calf serum (Gibco/Life Technologies, Gaithersburg, Md.). Cells were routinely passaged by trypsinization and dilution when they reached 90% confluence. Cells were seeded into 96-well plates (Falcon-Primaria #3872) at a density of 7000 cells/well for use in RT-PCR analysis.
When cells reached 65-75% confluency, they were treated with oligonucleotide. For cells grown in 96-well plates, wells were washed once with 100 μL OPTI-MEM™-1 reduced-serum medium (Invitrogen Corporation, Carlsbad, Calif.) and then treated with 130 μL of OPTI-MEM™-1 containing 3.75 μg/mL LIPOFECTIN™ (Invitrogen Corporation, Carlsbad, Calif.) and the desired concentration of oligonucleotide. Cells are treated and data are obtained in triplicate. After 4-7 hours of treatment at 37° C., the medium was replaced with fresh medium. Cells were harvested 16-24 hours after oligonucleotide treatment.
Total RNA was isolated using an RNEASY 96™ kit and buffers purchased from Qiagen Inc. (Valencia, Calif.) following the manufacturer's recommended procedures. Briefly, for cells grown on 96-well plates, growth medium was removed from the cells and each well was washed with 200 μL cold PBS. 150 μL Buffer RLT was added to each well and the plate vigorously agitated for 20 seconds. 150 μL of 70% ethanol was then added to each well and the contents mixed by pipetting three times up and down. The samples were then transferred to the RNEASY 96™ well plate attached to a QIAVAC™ manifold fitted with a waste collection tray and attached to a vacuum source. Vacuum was applied for 1 minute. 500 μL of Buffer RW1 was added to each well of the RNEASY 96™ plate and incubated for 15 minutes and the vacuum was again applied for 1 minute. An additional 500 μL of Buffer RW1 was added to each well of the RNEASY 96™ plate and the vacuum was applied for 2 minutes. 1 mL of Buffer RPE was then added to each well of the RNEASY 96™ plate and the vacuum applied for a period of 90 seconds. The Buffer RPE wash was then repeated and the vacuum was applied for an additional 3 minutes. The plate was then removed from the QIAVAC™ manifold and blotted dry on paper towels. The plate was then re-attached to the QIAVAC™ manifold fitted with a collection tube rack containing 1.2 mL collection tubes. RNA was then eluted by pipetting 140 μL of RNAse free water into each well, incubating 1 minute, and then applying the vacuum for 3 minutes.
Quantitation of growth hormone receptor mRNA levels was accomplished by real-time quantitative PCR using the ABI PRISM™ 7600, 7700, or 7900 Sequence Detection System (PE-Applied Biosystems, Foster City, Calif.) according to manufacturer's instructions. This is a closed-tube, non-gel-based, fluorescence detection system which allows high-throughput quantitation of polymerase chain reaction (PCR) products in real-time. As opposed to standard PCR in which amplification products are quantitated after the PCR is completed, products in real-time quantitative PCR are quantitated as they accumulate. This is accomplished by including in the PCR reaction an oligonucleotide probe that anneals specifically between the forward and reverse PCR primers, and contains two fluorescent dyes. A reporter dye (e.g., FAM or JOE, obtained from either PE-Applied Biosystems, Foster City, Calif., Operon Technologies Inc., Alameda, Calif. or Integrated DNA Technologies Inc., Coralville, Iowa) is attached to the 5′ end of the probe and a quencher dye (e.g., TAMRA, obtained from either PE-Applied Biosystems, Foster City, Calif., Operon Technologies Inc., Alameda, Calif. or Integrated DNA Technologies Inc., Coralville, Iowa) is attached to the 3′ end of the probe. When the probe and dyes are intact, reporter dye emission is quenched by the proximity of the 3′ quencher dye. […]
As to “227452 (antisense eT*e[5mC]*eA*eG*eG*dG*d[5mC]*dA*dT*dT*d[5mC]*dT*dT*dT*d[5mC]*e[5mC]*eA*eT*eT*e[5mC]) [compound 227452]”, the “% INHIB” value is listed as 79%. Consider “227453 (antisense e[5mC]*eA*eT*eA*eA*dT*d[5mC]*dA*dG*dG*dG*d[5mC]*dA*dT*dT*e[5mC]*eT*eT*eT*e[5mC]) [compound 227453]”, for which the “% INHIB” value is on record as 52%. Turning to “227464 (antisense e[5mC]*e[5mC]*eT*eT*eT*dA*dA*dT*d[5mC]*dT*dT*dT*dG*dG*dA*eA*e[5mC]*eT*eG*eG) [compound 227464]”, the “% INHIB” value is listed as 58%. On to “227468 (antisense eT*e[5mC]*eA*eT*e[5mC]*dA*dA*dT*dA*dT*d[5mC]*dT*dA*dG*d[5mC]*eT*e[5mC]*eA*eA*eT) [compound 227468]”, for which the “% INHIB” value is reported as 62%. As to “227469 (antisense e[5mC]*eT*eT*eA*eG*dA*dA*dG*dT*d[5mC]*dT*dG*dT*d[5mC]*dT*eG*eT*eG*eT*e[5mC]) [compound 227469]”, the “% INHIB” value was found to be 63%. The result for “227475 (antisense e[5mC]*e[5mC]*eT*eG*e[5mC]*dT*dG*dG*dT*dG*dT*dA*dA*dT*dG*eT*e[5mC]*eG*e[5mC]*eT) [compound 227475]” reads 68%. As for “227480 (antisense eA*eT*eG*eT*eA*dA*dA*dT*dG*dT*d[5mC]*d[5mC]*dT*d[5mC]*dT*eT*eG*eG*eT*eT) [compound 227480]”, the “% INHIB” value stood at 66%.

Regarding “227481 (antisense eT*eG*eG*eT*eG*dA*dT*dG*dT*dA*dA*dA*dT*dG*dT*e[5mC]*e[5mC]*eT*e[5mC]*eT) [compound 227481]”, the “% INHIB” value is listed as 45%.

With “227482 (antisense eT*eT*e[5mC]*eT*eG*dT*dG*dG*dT*dG*dA*dT*dG*dT*dA*eA*eA*eT*eG*eT) [compound 227482]”, the “% INHIB” value was 53%. Turning to “227483 (antisense eA*eG*eG*e[5mC]*eT*dT*dT*d[5mC]*dT*dG*dT*dG*dG*dT*dG*eA*eT*eG*eT*eA) [compound 227483]”, the “% INHIB” value came out at 75%. Take “227484 (antisense eT*eG*eG*eT*eA*dA*dG*dG*d[5mC]*dT*dT*dT*d[5mC]*dT*dG*eT*eG*eG*eT*eG) [compound 227484]”: the “% INHIB” value was determined as 63%. As to “227488 (antisense eA*eG*eT*eT*eG*dG*dT*d[5mC]*dT*dG*dT*dG*d[5mC]*dT*d[5mC]*eA*e[5mC]*eA*eT*eA) [compound 227488]”, the “% INHIB” value turned out to be 86%. In the case of “227489 (antisense eT*eG*eT*eT*e[5mC]*dA*dG*dT*dT*dG*dG*dT*d[5mC]*dT*dG*eT*eG*e[5mC]*eT*e[5mC]) [compound 227489]”, the “% INHIB” value was determined as 75%. Regarding “227490 (antisense eG*e[5mC]*eA*eT*eG*dA*dT*dT*dT*dT*dG*dT*dT*d[5mC]*dA*eG*eT*eT*eG*eG) [compound 227490]”, the “% INHIB” value was 67%. Regarding “227499 (antisense eT*eA*eT*eA*eA*dA*dA*dG*dG*dG*d[5mC]*dT*dT*dT*dG*eT*eA*eA*eA*eA) [compound 227499]”, the “% INHIB” value is given as 14%.

Take “227500 (antisense e[5mC]*eA*eT*eA*eG*d[5mC]*dA*dG*d[5mC]*dA*dA*dA*dG*dT*dA*eG*e[5mC]*eA*eG*eA) [compound 227500]”: the “% INHIB” value was 69%. The result for “227501 (antisense eG*e[5mC]*eT*eA*eT*dT*dT*dT*dT*dG*dG*d[5mC]*dT*dA*dT*eA*eG*eA*eA*eA) [compound 227501]” reads 64%.

On to “227502 (antisense eG*eA*eT*eT*eG*dA*dG*dG*dT*dA*dT*dT*dT*dA*dG*e[5mC]*eT*eA*eT*eT) [compound 227502]”, for which the “% INHIB” value was 56%. The figure for “272302 (antisense eG*eA*eT*e[5mC]*e[5mC]*dA*dT*dA*d[5mC]*d[5mC]*dT*dG*dT*dA*dG*eG*eA*e[5mC]*e[5mC]*eT) [compound 272302]” is 60%; for “272303 (antisense e[5mC]*e[5mC]*eA*eG*eA*dG*dA*dT*d[5mC]*d[5mC]*dA*dT*dA*d[5mC]*d[5mC]*eT*eG*eT*eA*eG) [compound 272303]” it is 55%.

Regarding “272304 (antisense eT*eG*e[5mC]*eT*eA*dA*dG*dG*dA*dT*dA*dG*d[5mC]*dT*dG*e[5mC]*eT*eG*eT*eG) [compound 272304]”, the “% INHIB” value is recorded as 48%. “272305 (antisense eT*eT*eG*eT*e[5mC]*dT*dT*dT*dA*dG*dG*d[5mC]*d[5mC]*dT*dG*eG*eA*eT*eT*eA) [compound 272305]”: the “% INHIB” value is given as 68%. Consider “272306 (antisense eT*eT*eA*eG*eA*dA*dG*dA*dA*dT*dT*dT*dG*dT*d[5mC]*eT*eT*eT*eA*eG) [compound 272306]”, for which the “% INHIB” value came out at 13%. With “272307 (antisense eG*eT*eG*eA*eA*dT*dT*dT*dA*dG*dG*d[5mC]*dT*d[5mC]*d[5mC]*eT*eT*eA*eG*eA) [compound 272307]”, the “% INHIB” value amounted to 55%.

For “272308 (antisense eG*e[5mC]*eT*eG*eT*dA*dT*dG*dG*dG*dT*d[5mC]*d[5mC]*dT*dA*eG*eG*eT*eT*e[5mC]) [compound 272308]”, the “% INHIB” value is given as 57%. As for “272309 (antisense eT*eA*eA*e[5mC]*eA*dG*d[5mC]*dT*dG*dT*dT*dT*dT*d[5mC]*d[5mC]*e[5mC]*e[5mC]*eA*eG*e[5mC]) [compound 272309]”, the “% INHIB” value was 85%. In the case of “272310 (antisense eT*eT*eT*e[5mC]*eA*dT*d[5mC]*d[5mC]*dA*d[5mC]*dT*dG*dT*dA*d[5mC]*e[5mC]*eA*e[5mC]*e[5mC]*eA) [compound 272310]”, the “% INHIB” value was 76%. With “272311 (antisense eT*eT*eG*e[5mC]*eA*d[5mC]*dT*dA*dT*dT*dT*d[5mC]*dA*dT*d[5mC]*eA*eA*e[5mC]*eA*eG) [compound 272311]”, the “% INHIB” value worked out at 47%.

For the substance “272312 (antisense eG*eG*eG*eT*eG*dG*dA*dT*d[5mC]*dT*dG*dG*dT*dT*dG*e[5mC]*eA*e[5mC]*eT*eA) [compound 272312]”, the “% INHIB” value stood at 57%. Consider “272313 (antisense eA*eT*eT*eG*e[5mC]*dG*dT*dG*dG*dT*dG*d[5mC]*dT*dT*d[5mC]*e[5mC]*e[5mC]*eA*eT*e[5mC]) [compound 272313]”, for which the “% INHIB” value came out at 77%. On to “272314 (antisense eT*eA*eG*eG*eG*dT*d[5mC]*d[5mC]*dA*dT*d[5mC]*dA*dT*dT*dT*eT*e[5mC]*e[5mC]*eA*eT) [compound 272314]”, for which the “% INHIB” value is listed as 56%. With “272315 (antisense e[5mC]*eA*eA*eT*eG*dA*dG*dT*dA*d[5mC]*dA*d[5mC]*dT*dG*dG*eA*eA*e[5mC]*eT*eG) [compound 272315]”, the “% INHIB” value worked out at 53%. The result for “272316 (antisense eA*eA*e[5mC]*eT*e[5mC]*dG*d[5mC]*d[5mC]*dA*dT*dA*dA*dT*dT*dT*e[5mC]*e[5mC]*eA*eG*eA) [compound 272316]” reads 64%. As for “272317 (antisense eA*eG*e[5mC]*e[5mC]*e[5mC]*dA*dA*dA*dT*dA*dT*dT*d[5mC]*d[5mC]*dA*eA*eA*eG*eA*eT) [compound 272317]”, the “% INHIB” value worked out at 65%.

As for “272318 (antisense eT*e[5mC]*eA*eG*e[5mC]*dA*dT*dT*dT*dT*dA*dA*dT*d[5mC]*d[5mC]*eT*eT*eT*eG*e[5mC]) [compound 272318]”, the “% INHIB” value is 55%.
